Key:
[1] = molecular target: T1, panel of 374 wild-type kinases (Homo sapiens, UniProt O75460); experiment: biochemical; conditions: read-out: % Enzyme Activity (relative to DMSO controls), ERN1/IRE1
T1 construct: purchased Reaction Biology Corporation

[2] = molecular target: T2, panel of 374 wild-type kinases (Homo sapiens, UniProt P30530); experiment: biochemical; conditions: read-out: % Enzyme Activity (relative to DMSO controls), AXL
T2 construct: purchased Reaction Biology Corporation
T2 sequence (P30530 26-894): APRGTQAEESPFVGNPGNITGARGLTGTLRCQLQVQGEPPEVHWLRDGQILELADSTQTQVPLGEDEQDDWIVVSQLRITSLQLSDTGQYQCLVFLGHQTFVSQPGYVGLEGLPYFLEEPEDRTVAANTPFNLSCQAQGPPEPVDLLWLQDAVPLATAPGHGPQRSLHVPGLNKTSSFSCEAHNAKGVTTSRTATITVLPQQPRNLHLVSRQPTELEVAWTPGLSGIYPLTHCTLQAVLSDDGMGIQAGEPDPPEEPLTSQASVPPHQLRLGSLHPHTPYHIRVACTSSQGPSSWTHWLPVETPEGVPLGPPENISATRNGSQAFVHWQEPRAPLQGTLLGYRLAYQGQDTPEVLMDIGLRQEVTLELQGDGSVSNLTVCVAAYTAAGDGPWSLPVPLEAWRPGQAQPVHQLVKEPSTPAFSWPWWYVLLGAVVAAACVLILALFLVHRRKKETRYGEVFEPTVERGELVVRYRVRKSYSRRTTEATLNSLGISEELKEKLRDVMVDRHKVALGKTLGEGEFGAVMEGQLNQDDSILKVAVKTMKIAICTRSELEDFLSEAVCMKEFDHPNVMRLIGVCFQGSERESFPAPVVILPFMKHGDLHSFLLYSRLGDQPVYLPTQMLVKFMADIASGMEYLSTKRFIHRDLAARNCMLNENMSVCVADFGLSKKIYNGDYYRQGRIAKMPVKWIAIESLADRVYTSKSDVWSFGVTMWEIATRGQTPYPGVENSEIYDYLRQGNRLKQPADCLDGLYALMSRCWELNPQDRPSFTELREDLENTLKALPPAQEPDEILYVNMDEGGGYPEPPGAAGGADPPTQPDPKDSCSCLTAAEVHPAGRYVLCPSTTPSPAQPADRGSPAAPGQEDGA

[3] = molecular target: T3, panel of 374 wild-type kinases (Homo sapiens, UniProt Q13164); experiment: biochemical; conditions: read-out: % Enzyme Activity (relative to DMSO controls), ERK5/MAPK7
T3 construct: purchased Reaction Biology Corporation
T3 sequence (Q13164 whole entry): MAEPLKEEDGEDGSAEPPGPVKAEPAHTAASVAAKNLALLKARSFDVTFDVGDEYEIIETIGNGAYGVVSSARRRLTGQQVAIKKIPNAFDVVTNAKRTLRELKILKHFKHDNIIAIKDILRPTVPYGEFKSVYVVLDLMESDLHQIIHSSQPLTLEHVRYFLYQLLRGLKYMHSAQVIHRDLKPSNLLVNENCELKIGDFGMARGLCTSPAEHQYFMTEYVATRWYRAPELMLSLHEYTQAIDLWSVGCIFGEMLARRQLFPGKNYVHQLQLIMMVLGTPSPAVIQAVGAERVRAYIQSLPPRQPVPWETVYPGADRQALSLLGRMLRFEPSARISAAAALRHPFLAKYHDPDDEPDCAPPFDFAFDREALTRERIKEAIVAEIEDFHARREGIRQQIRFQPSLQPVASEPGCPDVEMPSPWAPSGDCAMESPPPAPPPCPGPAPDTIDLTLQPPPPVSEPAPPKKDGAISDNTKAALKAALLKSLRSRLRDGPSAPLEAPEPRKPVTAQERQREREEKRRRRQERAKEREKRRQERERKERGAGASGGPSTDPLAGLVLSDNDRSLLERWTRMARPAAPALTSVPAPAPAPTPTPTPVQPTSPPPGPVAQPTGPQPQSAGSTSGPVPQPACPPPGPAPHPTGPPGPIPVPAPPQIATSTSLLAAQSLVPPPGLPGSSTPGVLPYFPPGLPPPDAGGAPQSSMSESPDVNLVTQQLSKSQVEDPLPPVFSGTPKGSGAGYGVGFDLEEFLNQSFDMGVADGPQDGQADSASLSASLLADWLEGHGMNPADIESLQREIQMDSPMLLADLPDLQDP

[4] = molecular target: T4, panel of 374 wild-type kinases (Homo sapiens, UniProt Q96PF2); experiment: biochemical; conditions: read-out: % Enzyme Activity (relative to DMSO controls), kinase TSSK2
T4 construct: purchased Reaction Biology Corporation
T4 sequence (Q96PF2 1-358): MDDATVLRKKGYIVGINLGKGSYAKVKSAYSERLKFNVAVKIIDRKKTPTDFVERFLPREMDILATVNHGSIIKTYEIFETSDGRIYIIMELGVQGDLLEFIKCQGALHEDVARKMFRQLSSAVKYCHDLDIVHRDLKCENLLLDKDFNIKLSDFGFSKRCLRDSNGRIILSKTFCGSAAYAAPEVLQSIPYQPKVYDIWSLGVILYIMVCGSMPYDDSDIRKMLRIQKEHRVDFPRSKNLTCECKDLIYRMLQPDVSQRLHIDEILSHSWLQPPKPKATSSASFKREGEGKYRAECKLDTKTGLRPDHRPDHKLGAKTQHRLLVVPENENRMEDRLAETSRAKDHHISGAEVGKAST

CYP1A2 = molecular target: T5, CYP1A2 (Homo sapiens, UniProt P05177); experiment: P450 cocktail inhibition assay, CYP1A2; format: in vitro ADME; conditions: at 10 μM
T5 sequence (P05177 1-516): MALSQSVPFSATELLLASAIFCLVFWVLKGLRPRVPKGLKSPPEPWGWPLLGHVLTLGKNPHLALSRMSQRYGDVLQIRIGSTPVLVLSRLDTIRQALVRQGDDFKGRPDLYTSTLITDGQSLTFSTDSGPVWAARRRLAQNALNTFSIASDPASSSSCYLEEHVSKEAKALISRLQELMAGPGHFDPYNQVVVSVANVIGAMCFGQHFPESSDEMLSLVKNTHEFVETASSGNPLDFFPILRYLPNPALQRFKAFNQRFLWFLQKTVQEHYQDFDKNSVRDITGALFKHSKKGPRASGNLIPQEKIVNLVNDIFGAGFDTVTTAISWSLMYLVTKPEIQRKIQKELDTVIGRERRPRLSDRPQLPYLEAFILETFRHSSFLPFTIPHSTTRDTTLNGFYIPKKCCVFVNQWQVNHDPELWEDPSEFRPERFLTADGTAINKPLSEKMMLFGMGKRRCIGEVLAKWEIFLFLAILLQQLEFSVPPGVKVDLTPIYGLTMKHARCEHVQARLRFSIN
Method: (§1) P450s inhibition for four major isoforms are evaluated using a cocktail inhibition assay where the metabolism of specific marker substrate (CYP1A2 phenaceten […] to acetaminophen); CYP2C9, tolbutamide hydroxylation to hydrocytolbutamide; CYP2D6, bufuralol hydroxylation to […]; and CYP3A4, midazolam hydroxylation to 1′-Hydroxymidazolam) in the presence or absence of 10 TM probe compound is evaluated. The concentration of each marker substrate is approximately its Km. […] Specific inhibitors for each isoform are included in each run to validate the system.

CYP3A4 = CYP3A4 (Homo sapiens, UniProt P08684); experiment: P450 cocktail inhibition assay, CYP3A4; format: in vitro ADME; conditions: at 10 μM
Sequence of CYP3A4 (P08684 whole entry): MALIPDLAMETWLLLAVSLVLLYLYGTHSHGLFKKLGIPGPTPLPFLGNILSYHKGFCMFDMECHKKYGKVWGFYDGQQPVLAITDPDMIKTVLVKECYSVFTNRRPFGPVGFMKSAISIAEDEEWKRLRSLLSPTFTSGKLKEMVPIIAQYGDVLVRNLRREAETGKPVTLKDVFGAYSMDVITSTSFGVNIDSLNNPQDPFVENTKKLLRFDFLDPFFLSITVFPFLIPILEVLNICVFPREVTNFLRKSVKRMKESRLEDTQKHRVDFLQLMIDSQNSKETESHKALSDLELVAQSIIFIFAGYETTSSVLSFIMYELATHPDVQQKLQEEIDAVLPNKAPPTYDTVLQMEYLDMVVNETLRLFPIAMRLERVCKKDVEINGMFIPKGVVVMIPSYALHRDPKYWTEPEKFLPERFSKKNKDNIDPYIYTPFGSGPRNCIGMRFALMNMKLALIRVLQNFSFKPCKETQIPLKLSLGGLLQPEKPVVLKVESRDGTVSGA
Method: as §1

CYP2C9 = CYP2C9 (Homo sapiens, UniProt P11712); experiment: P450 cocktail inhibition assay, CYP2C9; format: in vitro ADME; conditions: at 10 μM
Sequence of CYP2C9 (P11712 whole entry): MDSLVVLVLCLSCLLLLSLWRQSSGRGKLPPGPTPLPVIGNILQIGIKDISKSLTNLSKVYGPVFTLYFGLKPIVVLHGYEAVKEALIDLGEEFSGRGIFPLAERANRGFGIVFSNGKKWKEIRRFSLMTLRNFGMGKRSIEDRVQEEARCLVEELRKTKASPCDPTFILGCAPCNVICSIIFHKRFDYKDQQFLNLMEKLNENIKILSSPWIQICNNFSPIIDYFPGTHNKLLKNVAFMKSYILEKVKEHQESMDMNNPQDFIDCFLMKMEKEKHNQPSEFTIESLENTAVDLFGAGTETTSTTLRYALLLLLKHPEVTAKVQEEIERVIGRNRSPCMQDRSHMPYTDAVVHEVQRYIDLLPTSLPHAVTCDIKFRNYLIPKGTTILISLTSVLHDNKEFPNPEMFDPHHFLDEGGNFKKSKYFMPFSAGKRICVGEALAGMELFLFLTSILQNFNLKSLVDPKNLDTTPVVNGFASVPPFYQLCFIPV
Method: as §1

T1 sequence (O75460 19-977): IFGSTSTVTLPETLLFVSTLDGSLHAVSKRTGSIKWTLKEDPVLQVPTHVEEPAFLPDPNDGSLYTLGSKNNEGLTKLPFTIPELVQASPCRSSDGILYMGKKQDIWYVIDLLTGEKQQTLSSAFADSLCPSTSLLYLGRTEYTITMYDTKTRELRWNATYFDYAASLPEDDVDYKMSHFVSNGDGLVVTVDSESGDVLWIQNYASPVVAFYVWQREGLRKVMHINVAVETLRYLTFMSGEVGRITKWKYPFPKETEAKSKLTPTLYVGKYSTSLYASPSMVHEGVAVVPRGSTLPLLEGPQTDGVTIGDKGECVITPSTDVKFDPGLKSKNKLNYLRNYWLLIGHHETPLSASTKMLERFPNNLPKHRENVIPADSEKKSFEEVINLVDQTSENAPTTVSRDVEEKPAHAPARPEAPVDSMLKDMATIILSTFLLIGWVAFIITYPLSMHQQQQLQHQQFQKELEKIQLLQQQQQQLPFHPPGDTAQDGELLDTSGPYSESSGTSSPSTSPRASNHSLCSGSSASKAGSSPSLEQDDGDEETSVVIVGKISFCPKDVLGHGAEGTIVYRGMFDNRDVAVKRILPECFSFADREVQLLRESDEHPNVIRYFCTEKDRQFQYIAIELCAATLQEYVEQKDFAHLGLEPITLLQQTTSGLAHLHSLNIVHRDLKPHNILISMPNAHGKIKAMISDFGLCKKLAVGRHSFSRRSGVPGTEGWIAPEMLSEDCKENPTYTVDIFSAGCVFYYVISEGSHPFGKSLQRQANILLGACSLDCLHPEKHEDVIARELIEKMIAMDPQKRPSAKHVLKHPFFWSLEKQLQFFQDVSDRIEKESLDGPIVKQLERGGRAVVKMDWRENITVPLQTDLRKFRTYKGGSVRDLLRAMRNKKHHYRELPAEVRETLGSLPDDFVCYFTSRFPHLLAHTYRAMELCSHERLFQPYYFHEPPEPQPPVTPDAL

Structure (SMILES)	remaining activity at 10 µM ([1]; 10 uM) [%]	remaining activity at 10 µM ([2]; 10 uM) [%]	remaining activity at 10 µM ([3]; 10 uM) [%]	remaining activity at 10 µM ([4]; 10 uM) [%]	CYP-450 % inh. 1A2 (CYP1A2) [%]	CYP-450 % inh. 3A4 (CYP3A4) [%]	CYP-450 % inh. 2C9 (CYP2C9) [%]	remaining activity at 5 µM [1] [%]	remaining activity at 5 µM [2] [%]	remaining activity at 5 µM [3] [%]	remaining activity at 5 µM [4] [%]
Cc1sc(C(=O)NC2COC2)cc1-n1cc(NC(=O)Nc2c(F)cccc2Cl)cn1 [Compound 27, 4-(4-(3-(2-chloro-6-fluorophenyl)ureido)-1H-pyrazol-1-yl)-5-methyl-N-(oxetan-3-yl)thiophene-2-carboxamide]	94.1	86.6	95.7	84.7	22	16	33	–	–	–	–
O=C(Nc1cnn(-c2csc(C(=O)NC3COC3)c2)c1)Nc1c(F)cccc1Cl [Compound 25, 4-(4-(3-(2-chloro-6-fluorophenyl)ureido)-1H-pyrazol-1-yl)-N-(oxetan-3-yl)thiophene-2-carboxamide]	–	–	–	–	36	24	48	95.8	73	75.9	95.1
O=C(Nc1cnn(-c2csc(C(=O)NC3COC3)c2)c1)Nc1ccccc1Cl [Compound 17, 4-(4-(3-(2-chlorophenyl)ureido)-1H-pyrazol-1-yl)-N-(oxetan-3-yl)thiophene-2-carboxamide]	–	–	–	–	6	−34	8	94.3	96.7	119	91.5

From patent US20240246942A1, “KINASE INHIBITORS FOR THE TREATMENT OF NEURODEGENERATIVE DISEASES” (priority 2020, published 2024)
